Results reported in patent US6379879B2, “Color photographic silver halide material” (Agfa-Gevaert, priority 2000, dated 2002).

Assay: pKa of oil formers by titration with tetrabutylammonium hydroxide
Assay type: physicochemical
Conditions: titration with TBAH in dimethyl sulfoxide/water (100:0.25)

Q: Which “pKa of oil former” value does the source give for tricresyl phosphate [TCP] here?
A: >20
